The values below come from patent publication US7713964B2, “Methods for treating asthmatic conditions” (Wyeth LLC, priority 2001, dated 2010).

The target of data set [1] is T1, cPLA2 (Homo sapiens, UniProt P47712).
T1 sequence (P47712 1-749): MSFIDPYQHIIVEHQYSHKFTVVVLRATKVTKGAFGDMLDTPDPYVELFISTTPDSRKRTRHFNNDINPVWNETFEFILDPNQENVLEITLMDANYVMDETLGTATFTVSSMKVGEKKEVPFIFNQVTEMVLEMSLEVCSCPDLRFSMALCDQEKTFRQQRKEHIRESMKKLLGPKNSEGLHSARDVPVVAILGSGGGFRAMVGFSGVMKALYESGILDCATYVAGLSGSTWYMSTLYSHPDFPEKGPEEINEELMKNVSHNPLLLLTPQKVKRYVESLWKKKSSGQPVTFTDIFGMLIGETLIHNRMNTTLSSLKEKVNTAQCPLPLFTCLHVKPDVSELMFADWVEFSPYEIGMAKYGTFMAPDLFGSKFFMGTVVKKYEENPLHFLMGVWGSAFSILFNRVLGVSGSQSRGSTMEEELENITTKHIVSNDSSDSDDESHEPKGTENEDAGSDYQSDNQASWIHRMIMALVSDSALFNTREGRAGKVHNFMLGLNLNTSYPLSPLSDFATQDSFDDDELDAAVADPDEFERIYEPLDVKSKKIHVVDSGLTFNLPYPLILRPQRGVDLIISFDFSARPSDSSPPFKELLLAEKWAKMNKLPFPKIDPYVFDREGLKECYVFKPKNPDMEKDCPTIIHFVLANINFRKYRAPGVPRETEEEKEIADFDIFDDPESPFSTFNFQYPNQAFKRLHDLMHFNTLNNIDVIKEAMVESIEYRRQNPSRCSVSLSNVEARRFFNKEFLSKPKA
Briefly: Coumarine Assay (hydrolysis of 7-hydroxycoumarinyl 6-heptenoate by cPLA2, fluorometric). The data set is classed as biochemical. The following applies: 60 μM 7-hydroxycoumarinyl 6-heptenoate substrate, 4 μg cPLA2, pH 7.5; excitation 360 nm, emission 460 nm; read-out: Coumarin IC50.
Procedure: Inhibitors were mixed with 200 μL assay buffer (80 mM Heped, pH 7.5, 1 mM EDTA) containing 60 μM 7-hydroxycoumarinyl 6-heptenoate. The reaction was initiated by adding 4 μg cPLA2 in 50 μL assay buffer. Hydrolysis of the 7-hydroxycounarimyl 6-heptenoate ester was monitored in a fluorometer by exciting at 360 nm and monitoring emission at 460 nm. Enzyme activity is proportional to the increase in emission at 460 nm per minute. In the presence of a cPLA2 inhibitor, the rate of increase is less.

Take “4-[2-(1-benzhydryl-5-chloro-2-{2-[({2-[(3R,5S)-3,5-dimethylmorpholin4-yl]ethyl}sulfonyl)amino]ethyl}-1H-indol-3-yl)ethoxy]benzoic acid [Example 250]”: the IC50 in data set [1] came out at 2100 nM.
Consider “4-{2-[1-benzhydryl-5-chloro-2-(2-{[(2,6-dimethylbenzyl)sulfonyl]amino}ethyl)-1H-indol-3-yl]ethoxy}benzoic acid [Example 279]”, for which, in data set [1], the IC50 stood at 160 nM.
The same measure, in the same setting: in the case of `O=C(O)c1ccc(OCCc2c(CCNS(=O)(=O)c3cccc(F)c3)n(C(c3ccccc3)c3ccccc3)c3ccc(Cl)cc23)cc1` [Example 223] it was 600 nM; in that of `O=C(O)c1ccc(OCCc2c(CCNS(=O)(=O)c3c(F)cccc3F)n(C(c3ccccc3)c3ccccc3)c3ccc(Cl)cc23)cc1` [Example 225, 4-{2-[1-benzhydryl-5-chloro-2-(2-{[(2,6-fluorophenyl)sulfonyl]amino}ethyl)-1H-indol-3-yl]ethoxy}benzoic acid], 400 nM.
Same read-out and setting: in the case of `O=C(O)c1cccc(OCCc2c(CCNS(=O)(=O)Cc3ccc(Cl)c(Cl)c3)n(C(c3ccccc3)c3ccccc3)c3ccc(Cl)cc23)c1` [Example 284, 3-(2-(1-benzhydryl-5-chloro-2-(2-((3,4-dichlorophenyl)methylsulfonamido)ethyl)-1H-indol-3-yl)ethoxy) benzoic acid] it was 400 nM.
The compound `O=C(O)c1ccc(OCCc2c(CCNS(=O)(=O)Cc3ccc(Cl)c(Cl)c3)n(C(c3ccccc3)c3ccccc3)c3ccc(Cl)cc23)cc1F` [Example 296, 4-{2-[1-benzhydryl-5-chloro-2-(2-{[(3,4-dichlorobenzyl)sulfonyl]amino}ethyl)-1H-indol-3-yl]ethoxy}-2-fluorobenzoic acid] had a melting point of 117 to 119 °C.
As to `O=C(O)c1ccc(OCCc2c(CCNS(=O)(=O)Cc3ccccc3Cl)n(C(c3ccccc3)c3ccccc3)c3ccc(Cl)cc23)cc1F` [Example 297, 4-{2-[1-benzhydryl-5-chloro-2-(2-{[(2-chlorobenzyl)sulfonyl]amino}ethyl)-1H-indol-3-yl]ethoxy}-2-fluorobenzoic acid], the melting point is 132 to 135 °C.
On the same count and under the same terms, the figure for `CC(C)(Cc1ccc(S(=O)(=O)CCc2c(CCNS(=O)(=O)Cc3ccc(Cl)c(Cl)c3)n(C(c3ccccc3)c3ccccc3)c3ccc(Cl)cc23)cc1)C(=O)O` [Example 298, 3-[4-({2-[1-benzhydryl-5-chloro-2-(2-{[(3,4-dichlorobenzyl)sulfonyl]amino}ethyl)-1H-indol-3-yl]ethyl}sulfonyl)phenyl]-2,2-dimethylpropanoic acid] is 207 to 208 °C.

In general, IC50 refers to the concentration at which inhibition is half-maximal. What is called melting point is the temperature of the solid-liquid transition.
